Experimental data: article PMC3522636, “4F Decreases IRF5 Expression and Activation in Hearts of Tight Skin Mice” (PLoS ONE, 2012)
“Also recorded” adds a separate entry of the source.

Assays:
[1] = test system: TNFα, Il-6, and Il-1; conditions: cited from earlier work
Source text: The purpose of this study was to investigate an alternative mechanism for 4F decreasing myocardial inflammation in Tsk^−/+mice. While our previous report focused on 4F’s ability to decrease inflammation by improving HDL function, the current study determines the effects of 4F on IRF5. We chose to investigate this potential mechanism for two important reasons. […] These inflammatory mediators are all gene products of IRF5 [9], [29]. Second, genetic links between IRF5 and SSc have been ide ...

[2] = test system: IRF5; assay: IRF5 positive nuclei, immunofluorescence of heart sections; assay type: in vivo, mouse; conditions: 4F 1 mg/kg/d, sc; Tsk−/+ heart sections, confocal; ratio IRF5 labeled nuclei to total nuclei; p<0.05, n = 3
Source text: All experimental procedures and protocols involving mice were reviewed and approved by the Institutional Animal Care and Use Committee (IACUC) of the Medical College of Wisconsin (AUA#512). They also conformed to the rules in the Guiding Principles in the Care and Use of Animals published by the American Physiologic Society and the Guide for the Care and Use of Laboratory Animals published by OLAW. Male Tsk^−/+ and C57Bl/6J mice (6–8 weeks of age) were purchased from Jackson Laboratories (Bar Harbor, ME). Three groups of mice were studied; C57Bl/6J, Tsk^−/+, and Tsk^−/+ mice treated with 4F (1 mg/kg/d, sc) as published previously.
Hearts were harvested from mice, flash frozen and imbedded in OCT and cut into 10 µm sections. Frozen sections were fixed for 10 minutes in PBS containing 1% paraformaldehyde. Cell membranes were permeabilized by incubation in PBS containing 0.5% Triton-X for 5 min at room temperature. The sections were washed once in PBS (5 min) and incubated in PBS containing mouse monoclonal anti-IRF5 antibody (Santa Cruz, 1∶50 concentration) for 30 min at 37°C. Unbound anti-IRF5 antibody was washed free from the sections with PBS and the slides incubated with the appropriate Alexa 488-conjugated secondary antibody (Invitrogen, Carlsbad, CA) for 30 min at 37°C. […] Sections were mounted in aqueous mounting media and analyzed by confocal microscopy, [17].

[3] = test system: HDL; conditions: proposed mechanism; cited from earlier work
Source text: (§1) Although there is much support for the idea that 4F inhibits atherosclerosis by improving HDL function, the mechanism by which 4F decreases inflammation has not been identified completely. […] During the course of our studies for our report, [3], we found the anti-inflammatory effects of 4F on the Tsk^−/+ mice to be so profound that it was ...

[4] = cited from earlier work
Source text: as §1

[5] = biological target: T1, IRF5 (Homo sapiens, UniProt Q13568); assay: B-4F pulldown assay from EC cytosolic fractions spiked with recombinant IRF5; assay type: binding; conditions: 3 hours at 4°C, SA agarose beads overnight at 4°C; immunoblot
T1 construct: purchased GenScript USA Inc
T1 sequence (Q13568 1-498): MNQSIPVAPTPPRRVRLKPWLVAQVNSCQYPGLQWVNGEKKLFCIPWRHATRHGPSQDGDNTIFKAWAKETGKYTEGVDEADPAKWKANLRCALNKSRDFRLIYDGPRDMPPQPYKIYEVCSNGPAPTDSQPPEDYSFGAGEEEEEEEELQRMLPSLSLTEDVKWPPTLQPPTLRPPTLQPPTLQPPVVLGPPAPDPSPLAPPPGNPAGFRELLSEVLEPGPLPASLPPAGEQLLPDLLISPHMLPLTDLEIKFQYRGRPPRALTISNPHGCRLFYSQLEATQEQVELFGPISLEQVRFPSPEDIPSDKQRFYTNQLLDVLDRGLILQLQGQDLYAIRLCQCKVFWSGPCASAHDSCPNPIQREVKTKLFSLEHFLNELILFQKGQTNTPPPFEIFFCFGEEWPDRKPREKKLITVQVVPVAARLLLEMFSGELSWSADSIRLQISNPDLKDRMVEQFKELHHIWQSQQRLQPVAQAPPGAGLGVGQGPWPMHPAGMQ
Protocol: B-4F Pulldown Assays: To determine whether 4F interacts with IRF5 in the presence of cystosol proteins, we performed 4F pulldown assays on EC cytosolic fractions spiked with recombinant IRF5. Briefly, cytosolic EC fractions were precleared with SA agarose beads (Cat#15942-050, Invitrogen) for 30 minutes at 4°C. IRF5 interactions were enhanced by adding recombinant IRF5 (2% wt/vol, Genscript USA Inc.) to the endothelial cytosolic fractions. 4F and B-4F were added to the cytosolic fractions and incubated for 3 hours at 4°C. SA agarose beads were added and the samples mixed end-over-end overnight at 4°C. The following day the SA agarose beads were isolated by centrifugation. The proteins associated with B-4F were released from the beads with Laemmli buffer and separated by SDS-PAGE (4–15%) as above. IRF5 levels in the pulldown samples were determined by autoradiography of immunoblots as above.

[6] = test system: Tsk−/+ mice; conditions: 1 mg/kg/d, 6–8 weeks; cited from earlier work
Source text: One of the reasons that we felt 4F decreased inflammation by a mechanism(s) other than those mediated by HDL function, was the extreme differences in the histopathology of the hearts from untreated and 4F treated Tsk^−/+ mice. Untreated Tsk^−/+ hearts contained much higher levels of oxidized phospholipids, and autoantibodies against oxidized lipids than control hearts. In addition, untreated Tsk^−/+ hearts were also more fibrotic and expressed more angiostatin than control hearts, which likely contributed to the notable losses in angiogenic potential in the hearts of these mice. Wh ...

[7] = test system: proinflammatory HDL; conditions: cited from earlier work
Source text: Scleroderma is an autoimmune disease that is characterized by marked increases in fibrosis of the skin and internal organs in conjunction with enhanced apoptosis. The tight skin (Tsk^−/+) mouse is a murine model of systemic scleroderma that replicates many of the features observed in patients suffering from this disease.

In the case of Ac-DWFKAFYDKVAEKFKEAF-NH2 [4F], the “expression of TNFα, Il-6, and Il-1” value [1] is given as “decreases expression of TNFα, Il-6, and Il-1”, the “IRF5 nuclear localization / IRF5 positive nuclei” value [2] is given as “decreased both measurements in Tsk^−/+ hearts; also recorded: marked decreases in IRF-5 nuclear localization; also recorded: significantly more nuclear labeling in Tsk^−/+ hearts compared to C57BL/6J hearts and hearts from Tsk^−/+ mice treated with 4F; also recorded: decrease IRF5 expression, activation, nuclear translocation” and the “preβ HDL formation and HDL-dependent cholesterol efflux” value [3] is given as “formation of preβ HDL with improved HDL-dependent cholesterol efflux”. The reverse cholesterol transport [3] was “improvements in reverse cholesterol transport”, the “affinity for oxidized versus native lipids” value [4] was “greater affinity for oxidized rather than native lipids” and the “association with IRF5 in presence of EC cytosolic proteins (in words)” value [5] was “strong enough to pull down IRF5 from a mixture of endothelial cell cytosolic proteins; also recorded: this interaction exists even in the presence of EC cytosolic proteins”. For the same substance, the “oxidized phospholipids and autoantibodies against oxidized phospholipids in hearts” value [6] was “essentially eliminated oxidized phospholipids, and autoantibodies against oxidized phospholipids from the hearts” and the “proinflammatory HDL levels” value [7] was “decrease proinflammatory HDL levels”.
